# Data taken from publication PMC4849433, “Phloem Proteomics Reveals New Lipid-Binding Proteins with a Putative Role in Lipid-Mediated Signaling” (Frontiers in Plant Science, 2016).
# Legend:
# Experiment in all cases: liposome co-sedimentation with anti-His Western blot; protein-lipid overlay
# Format in all cases: binding
# [1] = molecular target: T1, GDSL-lipase (Arabidopsis thaliana, UniProt Q9C7N5); conditions: pH 7.0, 0.1 M NaCl, 30 °C, 30 min; 10 μg protein; lipid in liposomes
# T1 construct: gene At1g29660; 26-residue predicted signal peptide removed; pET15b His tag; E. coli BL21(DE3)pLysS; Ni-NTA purified
# T1 sequence (Q9C7N5 27-364): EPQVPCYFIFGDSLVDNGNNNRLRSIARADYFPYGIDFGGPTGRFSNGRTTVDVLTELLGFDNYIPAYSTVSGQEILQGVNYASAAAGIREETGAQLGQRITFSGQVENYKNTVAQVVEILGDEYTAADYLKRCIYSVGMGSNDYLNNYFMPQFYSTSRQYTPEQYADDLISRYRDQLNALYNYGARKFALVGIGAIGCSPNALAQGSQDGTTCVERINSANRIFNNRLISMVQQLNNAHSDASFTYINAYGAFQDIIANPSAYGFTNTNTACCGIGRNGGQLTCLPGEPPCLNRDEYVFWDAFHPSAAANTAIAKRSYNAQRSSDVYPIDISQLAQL
# [2] = molecular target: T2, PIG-P-like protein (Arabidopsis thaliana, UniProt A0A1P8B1E2); conditions: pH 7.0, 0.1 M NaCl, 30 °C, 30 min; 1 μg protein; lipid in liposomes
# T2 construct: gene TRM18; coding region, no signal peptide; pET15b His tag; E. coli BL21(DE3)pLysS; Ni-NTA purified; 50 kDa
# T2 sequence (A0A1P8B1E2 1-464): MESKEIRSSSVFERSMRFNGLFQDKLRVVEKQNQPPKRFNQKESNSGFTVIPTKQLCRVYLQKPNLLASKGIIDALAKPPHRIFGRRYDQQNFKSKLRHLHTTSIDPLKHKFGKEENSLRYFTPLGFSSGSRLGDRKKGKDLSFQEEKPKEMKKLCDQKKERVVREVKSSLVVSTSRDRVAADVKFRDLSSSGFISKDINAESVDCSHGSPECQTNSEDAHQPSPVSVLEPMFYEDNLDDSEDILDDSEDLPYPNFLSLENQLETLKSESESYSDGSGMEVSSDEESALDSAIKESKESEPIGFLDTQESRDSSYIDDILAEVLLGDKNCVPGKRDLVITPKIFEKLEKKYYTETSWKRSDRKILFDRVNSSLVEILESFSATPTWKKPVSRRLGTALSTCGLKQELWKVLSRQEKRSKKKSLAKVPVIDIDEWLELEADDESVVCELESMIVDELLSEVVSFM
# [3] = molecular target: T3, PLAFP (phloem lipid-associated family protein) (Arabidopsis thaliana, UniProt O65660); conditions: pH 7.0, 0.1 M NaCl, 30 °C, 30 min; 1 μg protein; PtdOH mixed into PtdCho liposomes; figure modified from Benning et al. 2012 (same laboratory)
# T3 construct: gene PLAT1; 23-residue predicted signal peptide removed; pET15b His tag; E. coli OrigamiB(DE3)pLysS; HisLink purified
# T3 sequence (O65660 24-181): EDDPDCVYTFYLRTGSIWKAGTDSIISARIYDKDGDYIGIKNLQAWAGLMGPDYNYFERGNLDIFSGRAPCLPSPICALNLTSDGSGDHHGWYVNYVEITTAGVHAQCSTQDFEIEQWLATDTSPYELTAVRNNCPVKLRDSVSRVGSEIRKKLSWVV
smiles,measurement,setting,value
CCCCCCCC/C=C\CCCCCCCC(=O)OC[C@H](COP(=O)(O)O)OC(=O)CCCCCCC/C=C\CCCCCCCC [PtdOH],liposome co-sedimentation with anti-His Western blot; protein-lipid overlay,[1],the GDSL-lipase does associate with PtdOH-containing liposomes (Figure 1G)
same,liposome co-sedimentation with anti-His Western blot; protein-lipid overlay,[2],PIG-P binds to liposomes containing PtdOH or PtdSer
same,liposome co-sedimentation with anti-His Western blot; protein-lipid overlay,[3],"when PtdOH was included in the liposome, PLAFP bound"
